In patent US10399940B2, “Substituted pyrrolidines and methods of use” (AbbVie S.à.r.l., priority 2016, dated 2019):
Like-named read-outs stand apart in the source and are kept apart here.

Molecular target: T1, F508delCFTR (Homo sapiens, UniProt P13569, DEL508-508)
T1 construct: expressed in transfected cells; host or cells: CFBE41o- (human lung derived epithelial cell line), doxycycline-inducible expression
Test: Cell Surface Expression-Horse Radish Peroxidase (CSE-HRP) assay
Type: cell-based
Conditions: CFBE41o-F508delCFTR-HRP cells; for Maximum % activity (with co-corrector): with co-corrector (2 μM); for Maximum % activity (with co-corrector) / Maximum % activity (without co-corrector): normalized to on-plate positive control, highest concentration 20 μM
Description: Cell Surface Expression-Horse Radish Peroxidase (CSE-HRP) Assay
A cellular assay for measuring the F508delCFTR cell surface expression after correction with test compounds either without or with a co-corrector (2 μM of 3-[(2R,4R)-4-({[1-(2,2-difluoro-1,3-benzodioxol-5-yl)cyclopropyl]carbonyl}amino)-7-methoxy-3,4-dihydro-2H-chromen-2-yl]benzoic acid), was developed in human lung derived epithelial cell line (CFBE41o-) (Veit G et al, (2012) Mol Biol Cell. 23(21): 4188-4202). The development was achieved by expressing the F508delCFTR mutation along with a horseradish peroxidase (HRP) in the fourth exofacial loop, and then measuring the HRP activity using luminescence readout from these cells, CFBE41o-F508delCFTR-HRP, that were incubated overnight with the test corrector compounds, either without or with the co-corrector. For this primary assay, the CFBE41o-F508delCFTR-HRP cells were plated in 384-well plates (Greiner Bio-one; Cat 781080) at 4,000 cells/well along with 0.5 μg/mL doxycycline to induce the F508delCFTR-HRP expression and further incubated at 37° C., 5% CO2 for 72 hours. The test compounds were then added either without or with a co-corrector at the required concentrations and further incubated for 18-24 hours at 33° C. The highest concentration tested was 20 μM with an 8-point concentration response curve using a 3-fold dilution in both the test compound without or with the co-corrector. Three replicate plates were run to determine one EC50. All plates contained negative controls (dimethyl sulfoxide, DMSO) and positive control (2 μM of 3-[(2R,4R)-4-({[1-(2,2-difluoro-1,3-benzodioxol-5-yl)cyclopropyl]carbonyl}amino)-7-methoxy-3,4-dihydro-2H-chromen-2-yl]benzoic acid) as well as on-plate concentration response of the positive control. Post incubation, the plates were washed 5× times with Dulbecco's phosphate buffered saline (DPBS), followed by the addition of the HRP substrate, luminol (50 μL), and measuring the HRP activity using luminescence readout on EnVision® Multilabel Plate Reader (Perkin Elmer; product number 2104-0010). The raw counts from the experiment were analyzed using Accelrys® Assay Explorer v3.3.
Z′ greater than 0.5 was used as passing quality control criteria for the plates.
The Z′ is defined as: 1−[3*SDPositive Control+3*SDNegative Control/Absolute(MeanPositive Control−MeanNegative Control)] wherein “SD” is standard deviation.
The % activity measured at each of the 8 test concentrations of the test compound added either without or with a co-corrector (2 μM of 3-[(2R,4R)-4-({[1-(2,2-difluoro-1,3-benzodioxol-5-yl)cyclopropyl]carbonyl}amino)-7-methoxy-3,4-dihydro-2H-chromen-2-yl]benzoic acid) was normalized to the on-plate positive control using the following formulae: % activity(Test compound without co-corrector)=[(test compound without co-corrector response−DMSO response)/(positive control response−DMSO response)]*100 % activity(Test compound with co-corrector)=[(test compound with co-corrector response−DMSO response)/(positive control response−DMSO response)]*100
The maximum % activity achieved for the test compound either without or with a co-corrector at any tested concentration is presented in Table 1 along with the respective EC50's calculated using the following general sigmoidal curve with variable Hill slope equation (described as Model 42 in the Accelrys® Assay Explorer v3.3 software): y=(a−d)/(1+(x/c)^b)+d
General sigmoidal curve with concentration, response, top, bottom, EC50 and Hill slope. This model describes a sigmoidal curve with an adjustable baseline, a. The equation can be used to fit curves where response is either increasing or decreasing with respect to the independent variable, “x”. • “x” is a concentration of drug under test. • “y” is the response. • “a” is the maximum response, and “d” is the minimum response • “c” is the inflection point (EC50) for the curve. That is, “y” is halfway between the lower and upper asymptotes when x=c. “b” is the slope-factor or Hill coefficient. […]

[1] = test compound without co-corrector, 18-24 hours at 33° C., read-out: EC50 (without co-corrector)
[2] = with co-corrector (2 μM of 3-[(2R,4R)-4-({[1-(2,2-difluoro-1,3-benzodioxol-5-yl)cyclopropyl]carbonyl}amino)-7-methoxy-3,4-dihydro-2H-chromen-2-yl]benzoic acid), read-out: EC50 (with co-corrector)

T1 sequence (P13569 with tags, fused parts or gaps DEL508-508): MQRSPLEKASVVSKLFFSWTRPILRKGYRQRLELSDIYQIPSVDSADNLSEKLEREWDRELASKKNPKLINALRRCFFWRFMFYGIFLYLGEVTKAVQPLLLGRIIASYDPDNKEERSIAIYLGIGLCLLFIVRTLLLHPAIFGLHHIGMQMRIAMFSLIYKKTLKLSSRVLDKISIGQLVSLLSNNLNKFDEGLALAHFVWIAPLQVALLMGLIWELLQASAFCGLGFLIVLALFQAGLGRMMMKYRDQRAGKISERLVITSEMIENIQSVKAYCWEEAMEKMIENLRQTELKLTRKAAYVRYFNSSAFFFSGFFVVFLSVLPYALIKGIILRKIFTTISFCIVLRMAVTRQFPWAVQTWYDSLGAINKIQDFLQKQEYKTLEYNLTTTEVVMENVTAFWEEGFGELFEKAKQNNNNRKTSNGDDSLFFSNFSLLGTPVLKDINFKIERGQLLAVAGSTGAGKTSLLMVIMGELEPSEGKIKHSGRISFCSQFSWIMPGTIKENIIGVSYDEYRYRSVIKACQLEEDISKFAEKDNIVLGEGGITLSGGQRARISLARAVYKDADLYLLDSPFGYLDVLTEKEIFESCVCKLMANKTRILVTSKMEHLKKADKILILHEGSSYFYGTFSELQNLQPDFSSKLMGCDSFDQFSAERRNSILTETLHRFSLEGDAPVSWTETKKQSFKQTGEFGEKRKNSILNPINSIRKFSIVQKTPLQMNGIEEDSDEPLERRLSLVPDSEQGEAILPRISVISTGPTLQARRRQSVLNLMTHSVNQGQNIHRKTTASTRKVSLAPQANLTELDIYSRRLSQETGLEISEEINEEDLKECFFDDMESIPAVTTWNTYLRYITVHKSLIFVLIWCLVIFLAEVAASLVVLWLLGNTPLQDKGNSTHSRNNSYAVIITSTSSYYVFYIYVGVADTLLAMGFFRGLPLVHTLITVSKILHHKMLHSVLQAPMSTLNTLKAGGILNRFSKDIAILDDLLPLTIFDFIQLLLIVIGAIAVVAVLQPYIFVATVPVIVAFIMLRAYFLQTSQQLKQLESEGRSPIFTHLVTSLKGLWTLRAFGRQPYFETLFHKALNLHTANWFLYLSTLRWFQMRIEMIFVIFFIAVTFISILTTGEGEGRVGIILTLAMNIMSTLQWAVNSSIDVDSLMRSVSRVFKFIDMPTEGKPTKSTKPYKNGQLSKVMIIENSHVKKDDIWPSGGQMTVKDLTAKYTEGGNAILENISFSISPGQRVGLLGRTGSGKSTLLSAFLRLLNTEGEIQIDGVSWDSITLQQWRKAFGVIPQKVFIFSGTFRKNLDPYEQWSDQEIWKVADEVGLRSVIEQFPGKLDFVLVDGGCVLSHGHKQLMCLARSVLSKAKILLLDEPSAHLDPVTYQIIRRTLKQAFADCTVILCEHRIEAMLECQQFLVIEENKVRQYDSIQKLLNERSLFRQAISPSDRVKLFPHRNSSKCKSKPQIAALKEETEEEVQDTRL

SMILES	EC50 [1]	EC50 [2]	Maximum % activity (with co-corrector)	Maximum % activity (without co-corrector)
COc1cc(C(F)(F)F)ccc1CO[C@@H]1[C@@H](C(C)(C)C)[C@H](C(=O)O)N(C(=O)OC2CCC2)[C@@H]1c1ccccc1 (racemic) [Example 34, rac-(2R,3S,4R,5R)-3-tert-butyl-1-[(cyclobutyloxy)carbonyl]-4-{[2-methoxy-4-(trifluoromethyl)phenyl]methoxy}-5-phenylpyrrolidine-2-carboxylic acid]	1000 to 10000 nM	1000 to 10000 nM	+++ (≥350)	+ (<100)
COc1ccc(Cl)cc1CO[C@@H]1[C@@H](C(C)(C)C)[C@H](C(=O)O)N(C(=O)OC2CCC2)[C@@H]1c1ccccc1 (racemic) [Example 35, rac-(2R,3S,4R,5R)-3-tert-butyl-4-[(5-chloro-2-methoxyphenyl)methoxy]-1-[(cyclobutyloxy)carbonyl]-5-phenylpyrrolidine-2-carboxylic acid]	1000 to 10000 nM	1000 to 10000 nM	+++ (≥350)	++ (≥100 and <200)
COc1ccc(C(F)(F)F)cc1CO[C@@H]1[C@@H](C(C)(C)C)[C@H](C(=O)O)N(C(=O)N(C(C)C)C(C)C)[C@@H]1c1ccccc1 (single isomer, unassigned) [Example 8, (2R*,3S*,4R*,5R*)-3-tert-butyl-1-[di(propan-2-yl)carbamoyl]-4-{[2-methoxy-5-(trifluoromethyl)phenyl]methoxy}-5-phenylpyrrolidine-2-carboxylic acid]	> 10000 nM	> 10000 nM	+ (<150)	+ (<100)
COc1ccc(C(F)(F)F)cc1CO[C@H]1[C@H](C(C)(C)C)[C@@H](C(=O)O)N(C(=O)N(C(C)C)C(C)C)[C@H]1c1ccccc1 (single isomer, unassigned) [Example 9, (2S*,3R*,4S*,5S*)-3-tert-butyl-1-[di(propan-2-yl)carbamoyl]-4-{[2-methoxy-5-(trifluoromethyl)phenyl]methoxy}-5-phenylpyrrolidine-2-carboxylic acid]	> 10000 nM	> 10000 nM	+ (<150)	+ (<100)
COc1ccc(C(F)(F)F)cc1CO[C@@H]1[C@@H](C(C)(C)C)[C@H](C(=O)O)N(C(=O)C2CCCCC2)[C@@H]1c1ccccc1 [Example 18, (2R,3S,4R,5R)-3-tert-butyl-1-(cyclohexanecarbonyl)-4-{[2-methoxy-5-(trifluoromethyl)phenyl]methoxy}-5-phenylpyrrolidine-2-carboxylic acid]	> 10000 nM	1000 to 10000 nM	++ (≥150 and <350)	+ (<100)
COCCS(=O)(=O)NC(=O)[C@@H]1[C@@H](C(C)(C)C)[C@H](OCc2cc(C(F)(F)F)ccc2OC)[C@H](c2ccccc2)N1C(=O)C1CCCCC1 [Example 21, (2S,3R,4S,5S)-3-tert-butyl-1-(cyclohexanecarbonyl)-N-(2-methoxyethanesulfonyl)-4-{[2-methoxy-5-(trifluoromethyl)phenyl]methoxy}-5-phenylpyrrolidine-2-carboxamide]	> 10000 nM	1000 to 10000 nM	++ (≥150 and <350)	+ (<100)

Continued, values first:

EC50 [1]	EC50 [2]	Maximum % activity (with co-corrector)	Maximum % activity (without co-corrector)	SMILES
1000 to 10000 nM	1000 to 10000 nM	+++ (≥350)	++ (≥100 and <200)	COc1ccc(C(F)(F)F)cc1COC1[C@@H](c2cccnc2N(C)C)N(C(=O)C2CCCCC2)[C@@H](C(=O)O)[C@@H]1C(C)(C)C (mixture of isomers) [Example 15, rac-(2R,3S,5R)-3-tert-butyl-1-(cyclohexanecarbonyl)-5-[2-(dimethylamino)pyridin-3-yl]-4-{[2-methoxy-5-(trifluoromethyl)phenyl]methoxy}pyrrolidine-2-carboxylic acid]
1000 to 10000 nM	1000 to 10000 nM	++ (≥150 and <350)	+ (<100)	COc1ccc(C(F)(F)F)cc1COC1[C@@H](c2ccccc2)N(C(=O)C2CCCCC2)[C@@H](C(=O)NS(C)(=O)=O)[C@@H]1C(C)(C)C (mixture of isomers) [Example 16, rac-(2R,3S,5R)-3-tert-butyl-1-(cyclohexanecarbonyl)-N-(methanesulfonyl)-4-{[2-methoxy-5-(trifluoromethyl)phenyl]methoxy}-5-phenylpyrrolidine-2-carboxamide]
1000 to 10000 nM	1000 to 10000 nM	+++ (≥350)	++ (≥100 and <200)	COc1ccc(Cl)cc1COC1[C@@H](c2ccccc2)N(C(=O)OC(C)C)[C@@H](C(=O)O)[C@@H]1C(C)(C)C (mixture of isomers) [Example 17, rac-(2R,3S,5R)-3-tert-butyl-4-[(5-chloro-2-methoxyphenyl)methoxy]-5-phenyl-1-{[(propan-2-yl)oxy]carbonyl}pyrrolidine-2-carboxylic acid]
< 1000 nM	< 1000 nM	+++ (≥350)	++ (≥100 and <200)	COc1ncc(C(F)(F)F)cc1CO[C@@H]1[C@@H](C(C)(C)C)[C@H](C(=O)O)N(C(=O)C2CCCCC2)[C@@H]1c1ccccc1 (racemic) [Example 20, rac-(2R,3S,4R,5R)-3-tert-butyl-1-(cyclohexanecarbonyl)-4-{[2-methoxy-5-(trifluoromethyl)pyridin-3-yl]methoxy}-5-phenylpyrrolidine-2-carboxylic acid]
< 1000 nM	< 1000 nM	++ (≥150 and <350)	+ (<100)	COc1ncc(C(F)(F)F)cc1CO[C@H]1[C@H](C(C)(C)C)[C@@H](C(=O)O)N(C(=O)[C@H]2CCCCO2)[C@H]1c1cccc(C(C)(C)C)c1 (single isomer, unassigned) [Example 157]
< 1000 nM	< 1000 nM	+++ (≥350)	+ (<100)	COc1ncc(C(F)(F)F)cc1CO[C@H]1[C@H](C(C)(C)C)[C@@H](C(=O)O)N(C(=O)[C@@H]2CCCC[C@H]2C(F)(F)F)[C@H]1c1cccnc1OC(C)C (single isomer, unassigned) [Example 282]
< 1000 nM	1000 to 10000 nM	+++ (≥350)	+ (<100)	COc1ncc(C(F)(F)F)cc1CO[C@H]1[C@H](C(C)(C)C)[C@@H](C(=O)O)N(C(=O)[C@H]2CCCC[C@@H]2C(F)(F)F)[C@H]1c1cccnc1OC(C)C (single isomer, unassigned) [Example 283]
< 1000 nM	< 1000 nM	+++ (≥350)	+++ (≥200)	COc1ccc(C(F)(F)F)cc1CO[C@H]1[C@H](C(C)(C)C)[C@@H](C(=O)O)N(C(=O)C2CCCCC2)[C@H]1c1ccccc1 [Example 19, (2S,3R,4S,5S)-3-tert-butyl-1-(cyclohexanecarbonyl)-4-{[2-methoxy-5-(trifluoromethyl)phenyl]methoxy}-5-phenylpyrrolidine-2-carboxylic acid]
